We go through five compounds from patent publication US12122816B2, “Long acting peptide tyrosine tyrosine (PYY) analogs and methods of use” (Intarcia Therapeutics, Inc., priority 2020, dated 2024).

A short description of series [1]: In vitro metabolic stability in kidney brush border membranes (kBBM). The series is classed as in vitro ADME. Particulars: pH 7.4, human kBBM 50 mcg protein/mL, 1 mcM peptide, 37° C., read-out: hkBBM t½ (converted). As for the experimental part:
In vitro incubations in kidney brush border membrane (kBBM) preparations were used to characterize the ability of peptides to resist degradation by proteases and peptidases in the systemic circulation. kBBM were selected because they contain a high concentration of a diverse set of proteases and peptidases, many of which are present throughout the body.
Brush border membranes from rat and human kidney tissue were prepared via centrifugation and stored at −70° C. Thawed stocks of rat or human kBBM were diluted to the appropriate concentration in 25 mM HEPES buffer (pH 7.4) containing 1% casein and aliquoted into a 96-well plate. The kBBM solutions were pre-warmed for 10 minutes at 37° C. […] The final concentration of kBBM in each incubation was 50 mcg protein/mL. Reactions were maintained at 37° C. in a shaking water bath. […] Quenched samples were centrifuged at 2178×g for 10 min and then a portion of the supernatants were transferred to a clean 96-well plate and diluted 1:1 with water. Samples were analyzed by UPLC-MS/MS.

In series [2] the target is T1, human Y2 receptor (Homo sapiens, UniProt P49146).
T1 sequence (P49146 1-381): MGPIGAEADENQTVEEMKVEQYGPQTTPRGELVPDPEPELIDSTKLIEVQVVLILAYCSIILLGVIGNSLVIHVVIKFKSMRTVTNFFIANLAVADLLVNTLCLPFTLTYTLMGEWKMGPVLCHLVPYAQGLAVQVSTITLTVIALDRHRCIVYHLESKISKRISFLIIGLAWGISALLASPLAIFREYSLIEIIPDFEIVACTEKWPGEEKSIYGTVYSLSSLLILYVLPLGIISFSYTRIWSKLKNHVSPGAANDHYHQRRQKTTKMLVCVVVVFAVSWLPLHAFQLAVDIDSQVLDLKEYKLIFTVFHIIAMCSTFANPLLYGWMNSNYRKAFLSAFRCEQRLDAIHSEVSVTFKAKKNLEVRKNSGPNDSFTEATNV
In words: NPY receptor functional assay (cAMP, HEK-CNG cells, ACTOne membrane potential dye). It is filed as cell-based. Particulars: NPY2R pEC50, HEK-CNG cells; standard PYY(3-36); species (human or rat) not given. In outline:
(§1)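 HEK-CNG cells stably expressing each human receptor; peptides added in triplicate for 50 minutes at room temperature, with agonism read as decreased isoproterenol-induced membrane potential dye signal (final/initial read).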

For series [3], the target named is T2, human Y5 receptor (Homo sapiens, UniProt Q15761).
T2 sequence (Q15761 1-445): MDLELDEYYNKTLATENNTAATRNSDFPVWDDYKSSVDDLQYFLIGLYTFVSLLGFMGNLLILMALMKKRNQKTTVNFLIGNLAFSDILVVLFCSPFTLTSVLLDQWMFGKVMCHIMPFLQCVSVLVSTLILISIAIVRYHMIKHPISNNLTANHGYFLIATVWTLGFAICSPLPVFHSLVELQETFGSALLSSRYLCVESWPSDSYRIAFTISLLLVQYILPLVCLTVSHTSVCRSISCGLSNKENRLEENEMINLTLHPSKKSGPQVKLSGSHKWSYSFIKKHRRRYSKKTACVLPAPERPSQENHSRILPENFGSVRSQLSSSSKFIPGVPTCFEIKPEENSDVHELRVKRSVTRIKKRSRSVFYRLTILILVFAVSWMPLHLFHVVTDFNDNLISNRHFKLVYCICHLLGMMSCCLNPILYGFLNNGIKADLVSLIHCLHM
Described as above. It is filed as cell-based. Particulars: NPY5R pEC50, HEK-CNG cells; standard NPY; species (human or rat) not given. In outline: as §1

Series [4] in a line: In vitro stability in subcutaneous (SC) tissue homogenates. Particulars: subcutaneous tissue homogenate, pH 7.4; human SC tissue homogenate 1.0 mg protein/mL, 10 mcM peptide, 37° C.; read-out: (H)SC tissue stability t½ (converted). It is filed as in vitro ADME. As for the experimental part:
In vitro incubations in subcutaneous (SC) tissue homogenates were used to characterize the ability of peptides to resist pre-systemic degradation by proteases and peptidases after SC administration. […] Peptides with high SC bioavailability are stable in this assay, while peptides with low SC bioavailability are unstable in this assay.
Human SC tissue was homogenized in cold 25 mM HEPES buffer (pH 7.4, 10-fold volume based on sample weight), and then filtered through a double layer of cheesecloth. The filtrates were aliquoted, flash frozen on a methanol/dry ice bath and stored at −80° C. The protein concentration of each pooled batch was determined using the BCA protein assay. Thawed stocks of human SC tissue homogenates were diluted to 1.0 mg protein/mL in 25 mM HEPES buffer (pH 7.4) and aliquoted into a 96-well plate. The diluted SC homogenates were pre-warmed for 10 minutes at 37° C. […] Reactions were maintained at 37° C. in a shaking water bath. […] Quenched samples were centrifuged at 2178×g for 10 min and then a portion of the supernatants were transferred to a clean 96-well plate and diluted 1:10 with water. Samples were analyzed by UPLC-MS/MS.

The target in series [5] is human Y4 receptor (Homo sapiens, UniProt P50391). As to the kind of experiment: NPY receptor functional assay (cAMP, HEK-CNG cells, ACTOne membrane potential dye). The series is classed as cell-based. Particulars: standard PP, species (human or rat) not given. In outline: as §1
human Y4 receptor, sequence (P50391 whole entry): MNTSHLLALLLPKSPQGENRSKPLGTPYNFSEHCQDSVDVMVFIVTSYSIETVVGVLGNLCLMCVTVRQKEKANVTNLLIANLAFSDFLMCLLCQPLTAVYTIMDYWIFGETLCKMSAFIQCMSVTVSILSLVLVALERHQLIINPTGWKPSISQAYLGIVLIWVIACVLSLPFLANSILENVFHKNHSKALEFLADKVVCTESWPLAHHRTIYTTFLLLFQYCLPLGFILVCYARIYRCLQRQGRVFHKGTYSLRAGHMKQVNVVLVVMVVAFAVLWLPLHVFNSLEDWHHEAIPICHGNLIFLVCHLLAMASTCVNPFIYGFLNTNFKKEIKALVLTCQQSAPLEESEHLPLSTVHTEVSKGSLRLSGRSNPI

Starred links: 1 amine or outer side, 2 acyl side, 3 side chain; linkers in the order of their positions; H or OH if unused. Residues, ends and D or L forms follow the SMILES beside them. Groups on a side chain read outwards from the residue. *: point of attachment. C20 diacid = O=C(O)CCCCCCCCCCCCCCCCCCC(=O)*; γGlu = O=C(O)[C@H](CCC(=O)[*:2])N[*:1]

With `CC(C)C[C@H](NC(=O)[C@H](CC(=O)O)NC(=O)[C@H](CCCCN)NC(=O)[C@H](Cc1ccc(O)cc1)NC(=O)[C@H](Cc1ccc(O)cc1)NC(=O)[C@H](CCCNC(=N)N)NC(=O)[C@H](CC(=O)O)NC(=O)[C@H](Cc1c[nH]c2ccccc12)NC(=O)[C@H](CCC(=O)O)NC(=O)[C@H](CCCCN)NC(=O)[C@@H]1CCCN1C(=O)[C@H](CO)NC(=O)[C@H](C)NC(=O)[C@H](CC(=O)O)NC(=O)[C@H](CCC(=O)O)NC(=O)CNC(=O)[C@@H]1CCCN1C(=O)[C@H](CCCCNC(=O)CC[C@H](NC(=O)CC[C@H](NC(=O)CCCCCCCCCCCCCCCCC(=O)O)C(=O)O)C(=O)O)NC(=O)[C@H](CCC(=O)O)NC(=O)[C@@H]1CCCN1C(=O)[C@H](CCCCN)NC(=O)[C@@H]1CCCN1)C(=O)N[C@@H](CCCNC(=N)N)C(=O)N[C@@H](Cc1c[nH]cn1)C(=O)N[C@@H](Cc1ccc(O)cc1)C(=O)N[C@@H](CC(C)C)C(=O)N[C@@H](CC(N)=O)C(=O)N[C@@H](Cc1c[nH]c2ccccc12)C(=O)N[C@@H](CC(C)C)C(=O)N[C@H](C(=O)N[C@@H](CCCNC(=N)N)C(=O)N[C@@H](CCC(N)=O)C(=O)N[C@@H](CCCNC(=N)N)C(=O)N[C@@H](Cc1ccccc1)C(N)=O)[C@@H](C)O` [Compound A35], the half-life at 1 mcM in series [1] was 5.6 h. Moreover, the EC50 in series [2] was 0.0316 nM; in series [3], 0.794 nM. Besides, in series [4], the half-life at 10 mcM was 1.3 h.

For the compound `CC(C)C[C@H](NC(=O)[C@H](CC(=O)O)NC(=O)[C@H](C)NC(=O)[C@H](Cc1ccc(O)cc1)NC(=O)[C@H](Cc1ccc(O)cc1)NC(=O)[C@H](CCCNC(=N)N)NC(=O)[C@H](CC(N)=O)NC(=O)[C@H](Cc1c[nH]c2ccccc12)NC(=O)[C@H](CCC(=O)O)NC(=O)[C@H](CCC(=O)O)NC(=O)[C@@H]1CCCN1C(=O)[C@H](CO)NC(=O)[C@H](C)NC(=O)[C@H](CC(=O)O)NC(=O)[C@H](CCCCN)NC(=O)CNC(=O)[C@@H]1CCCN1C(=O)[C@H](C)NC(=O)[C@H](CCC(=O)O)NC(=O)[C@@H]1CCCN1C(=O)[C@H](CCCCN)NC(=O)[C@@H]1CCCN1)C(=O)N[C@@H](CCCCNC(=O)CC[C@H](NC(=O)CC[C@H](NC(=O)CCCCCCCCCCCCCCCCCCC(=O)O)C(=O)O)C(=O)O)C(=O)N[C@@H](Cc1c[nH]cn1)C(=O)N[C@@H](Cc1ccc(O)cc1)C(=O)N[C@@H](CC(C)C)C(=O)N[C@@H](CC(N)=O)C(=O)N[C@@H](Cc1c[nH]c2ccccc12)C(=O)N[C@@H](CC(C)C)C(=O)N[C@H](C(=O)N[C@@H](CCCNC(=N)N)C(=O)N[C@@H](CCC(N)=O)C(=O)N[C@@H](CCCNC(=N)N)C(=O)N[C@@H](Cc1ccccc1)C(N)=O)[C@@H](C)O` [Compound A53], the EC50 is 2 nM in series [2] and 50.1 nM in series [3]. Besides, the “NPY4R pEC50” value in series [5] was “inactive”.

Turning to `CC(C)C[C@H](NC(=O)[C@H](CC(=O)O)NC(=O)[C@H](CCCCNC(=O)CC[C@H](NC(=O)CC[C@H](NC(=O)CCCCCCCCCCCCCCCCCCC(=O)O)C(=O)O)C(=O)O)NC(=O)[C@H](Cc1ccc(O)cc1)NC(=O)[C@H](Cc1ccc(O)cc1)NC(=O)[C@H](CCCNC(=N)N)NC(=O)[C@H](CC(N)=O)NC(=O)[C@H](Cc1c[nH]c2ccccc12)NC(=O)[C@H](CCC(=O)O)NC(=O)[C@H](CCC(=O)O)NC(=O)[C@@H]1CCCN1C(=O)[C@H](CO)NC(=O)[C@H](C)NC(=O)[C@H](CC(=O)O)NC(=O)[C@H](CCCCN)NC(=O)CNC(=O)[C@@H]1CCCN1C(=O)[C@H](C)NC(=O)[C@H](CCC(=O)O)NC(=O)[C@@H]1CCCN1C(=O)[C@H](CCCCN)NC(=O)[C@@H]1CCCN1)C(=O)N[C@@H](CCCNC(=N)N)C(=O)N[C@@H](Cc1c[nH]cn1)C(=O)N[C@@H](Cc1ccc(O)cc1)C(=O)N[C@@H](CC(C)C)C(=O)N[C@@H](CC(N)=O)C(=O)N[C@@H](Cc1c[nH]c2ccccc12)C(=O)N[C@@H](CC(C)C)C(=O)N[C@H](C(=O)N[C@@H](CCCNC(=N)N)C(=O)N[C@@H](CCC(N)=O)C(=O)N[C@@H](CCCNC(=N)N)C(=O)N[C@@H](Cc1ccccc1)C(N)=O)[C@@H](C)O` [Compound A54], the values for the EC50 in series [2] and in series [3] were 20 nM and 10 nM, respectively. Further, in series [5], the “NPY4R pEC50” value was “inactive”.

For the compound `CC(C)C[C@H](NC(=O)[C@H](Cc1ccc(O)cc1)NC(=O)[C@H](Cc1c[nH]cn1)NC(=O)[C@H](CCCNC(=N)N)NC(=O)[C@H](C)NC(=O)[C@H](CC(=O)O)NC(=O)[C@H](C)NC(=O)[C@H](Cc1ccc(O)cc1)NC(=O)[C@H](Cc1ccc(O)cc1)NC(=O)[C@H](CCCNC(=N)N)NC(=O)[C@H](CC(N)=O)NC(=O)[C@H](CC(C)C)NC(=O)[C@H](CCC(=O)O)NC(=O)[C@H](CCC(=O)O)NC(=O)[C@@H]1CCCN1C(=O)[C@H](CO)NC(=O)[C@H](C)NC(=O)[C@H](CC(=O)O)NC(=O)[C@H](CCCCN)NC(=O)[C@H](CCCCNC(=O)CC[C@H](NC(=O)CC[C@H](NC(=O)CCCCCCCCCCCCCCCCCCC(=O)O)C(=O)O)C(=O)O)NC(=O)[C@@H]1CCCN1C(=O)[C@H](C)NC(=O)[C@H](CCC(=O)O)NC(=O)[C@@H]1CCCN1C(=O)[C@H](CCCCN)NC(=O)[C@@H]1CCCN1)C(=O)N[C@@H](CC(N)=O)C(=O)N[C@@H](Cc1c[nH]c2ccccc12)C(=O)N[C@@H](CC(C)C)C(=O)N[C@H](C(=O)N[C@@H](CCCNC(=N)N)C(=O)N[C@@H](CCC(N)=O)C(=O)N[C@@H](CCCNC(=N)N)C(=O)N[C@@H](Cc1ccccc1)C(N)=O)[C@@H](C)O` [Compound A64] (H-PKPEAPK([γGlu-γGlu-C20 diacid])KDASPEELNRYYADARHYLNWLTRQRF-NH2; N-terminus assumed), the EC50 in series [2] was 2.51 nM; in series [3], 12.6 nM. Moreover, in series [5], the “NPY4R pEC50” value was “inactive”.

With `CC(C)C[C@H](NC(=O)[C@H](CC(=O)O)NC(=O)[C@H](C)NC(=O)[C@H](Cc1ccc(O)cc1)NC(=O)[C@H](Cc1ccc(O)cc1)NC(=O)[C@H](CCCNC(=N)N)NC(=O)[C@H](CC(N)=O)NC(=O)[C@H](Cc1c[nH]c2ccccc12)NC(=O)[C@H](CCC(=O)O)NC(=O)[C@H](CCC(=O)O)NC(=O)[C@@H]1CCCN1C(=O)[C@H](CO)NC(=O)[C@H](C)NC(=O)[C@H](CC(=O)O)NC(=O)[C@H](CCCCN)NC(=O)CNC(=O)[C@@H]1CCCN1C(=O)[C@H](C)NC(=O)[C@H](CCC(=O)O)NC(=O)[C@@H]1CCCN1C(=O)[C@H](CCCCN)NC(=O)[C@@H]1CCCN1)C(=O)N[C@@H](CCCNC(=N)N)C(=O)N[C@@H](Cc1c[nH]cn1)C(=O)N[C@@H](CCCCNC(=O)CC[C@H](NC(=O)CC[C@H](NC(=O)CCCCCCCCCCCCCCCCCCC(=O)O)C(=O)O)C(=O)O)C(=O)N[C@@H](CC(C)C)C(=O)N[C@@H](CC(N)=O)C(=O)N[C@@H](Cc1c[nH]c2ccccc12)C(=O)N[C@@H](CC(C)C)C(=O)N[C@H](C(=O)N[C@@H](CCCNC(=N)N)C(=O)N[C@@H](CCC(N)=O)C(=O)N[C@@H](CCCNC(=N)N)C(=O)N[C@@H](Cc1ccccc1)C(N)=O)[C@@H](C)O` [Compound A52], the EC50 in series [2] was 3.98 nM; in series [3], 10 nM. For the same compound, the “NPY4R pEC50” value in series [5] is “inactive”.

As a reminder, the EC50 is the concentration at which the effect is half-maximal. Lower therefore signals greater potency.
